{
  "source": "PubChem BioAssay (NCI)",
  "test_in_all_cases": "NCI tumour cell line growth inhibition, 48 h",
  "key": {"[1]": {"tested_on": "PC-3 prostate"}, "[2]": {"tested_on": "SF-268 CNS"}, "[3]": {"tested_on": "HCC-2998 colon"}, "[4]": {"tested_on": "BT-549 breast"}, "[5]": {"tested_on": "OVCAR-4 ovarian"}, "[6]": {"tested_on": "NCI-H226 lung"}, "[7]": {"tested_on": "HCT-15 colon"}, "[8]": {"tested_on": "UO-31 renal"}, "[9]": {"tested_on": "RXF 393 renal"}, "[10]": {"tested_on": "HT29 colon"}, "[11]": {"tested_on": "M14 melanoma"}, "[12]": {"tested_on": "CAKI-1 renal"}, "[13]": {"tested_on": "UACC-257 melanoma"}, "[14]": {"tested_on": "SF-539 CNS"}, "[15]": {"tested_on": "MOLT-4 leukemia"}, "[16]": {"tested_on": "SK-MEL-2 melanoma"}, "[17]": {"tested_on": "OVCAR-3 ovarian"}, "[18]": {"tested_on": "A498 renal"}, "[19]": {"tested_on": "UACC-62 melanoma"}, "[20]": {"tested_on": "RPMI-8226 leukemia"}, "[21]": {"tested_on": "KM12 colon"}, "[22]": {"tested_on": "CCRF-CEM leukemia"}, "[23]": {"tested_on": "IGROV1 ovarian"}, "[24]": {"tested_on": "NCI/ADR-RES ovarian"}, "[25]": {"tested_on": "786-0 renal"}, "[26]": {"tested_on": "NCI-H460 lung"}, "[27]": {"tested_on": "SK-MEL-28 melanoma"}, "[28]": {"tested_on": "OVCAR-5 ovarian"}, "[29]": {"tested_on": "MDA-MB-435"}, "[30]": {"tested_on": "MALME-3M melanoma"}, "[31]": {"tested_on": "NCI-H522 lung"}, "[32]": {"tested_on": "HCT-116 colon"}, "[33]": {"tested_on": "K-562 leukemia"}, "[34]": {"tested_on": "EKVX NSCLC"}, "[35]": {"tested_on": "TK-10 renal"}, "[36]": {"tested_on": "SW-620 colon"}, "[37]": {"tested_on": "DU-145 prostate"}, "[38]": {"tested_on": "OVCAR-8 ovarian"}, "[39]": {"tested_on": "HS 578T breast"}, "[40]": {"tested_on": "MDA-MB-231 breast"}, "[41]": {"tested_on": "SK-MEL-5 melanoma"}, "[42]": {"tested_on": "HOP-92 NSCLC"}, "[43]": {"tested_on": "NCI-H23 lung"}, "[44]": {"tested_on": "SN12C renal"}, "[45]": {"tested_on": "U251 CNS"}, "[46]": {"tested_on": "A549 NSCLC"}, "[47]": {"tested_on": "SF-295 CNS"}, "[48]": {"tested_on": "ACHN renal"}, "[49]": {"tested_on": "HOP-62 NSCLC"}},
  "note": "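Briefly, cells in 96-well plates were exposed to five compound concentrations for 48 h, and endpoints were estimated by linear interpolation. TGI denotes the concentration required for complete inhibition of growth.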",
  "data": [
    {"smiles": "Cc1sc2nc(-c3cc([N+](=O)[O-])c(Cl)cc3Cl)c(/C=N/N=C(N)N)n2c1C", "values": [
      {"measurement": "TGI", "setting": "[1]", "result": 36.2, "unit": "µM"},
      {"measurement": "TGI", "setting": "[2]", "result": 66.1, "unit": "µM"},
      {"measurement": "TGI", "setting": "[3]", "result": 5.39, "unit": "µM"},
      {"measurement": "TGI", "setting": "[4]", "result": 12, "unit": "µM"},
      {"measurement": "TGI", "setting": "[5]", "result": 9, "unit": "µM"},
      {"measurement": "TGI", "setting": "[6]", "result": 75.2, "unit": "µM"},
      {"measurement": "TGI", "setting": "[7]", "result": "> 100", "unit": "µM"},
      {"measurement": "TGI", "setting": "[8]", "result": 26.4, "unit": "µM"},
      {"measurement": "TGI", "setting": "[9]", "result": 20.6, "unit": "µM"},
      {"measurement": "TGI", "setting": "[10]", "result": 9, "unit": "µM"},
      {"measurement": "TGI", "setting": "[11]", "result": 7, "unit": "µM"},
      {"measurement": "TGI", "setting": "[12]", "result": 33.9, "unit": "µM"},
      {"measurement": "TGI", "setting": "[13]", "result": 26, "unit": "µM"},
      {"measurement": "TGI", "setting": "[14]", "result": 88, "unit": "µM"},
      {"measurement": "TGI", "setting": "[15]", "result": 4.64, "unit": "µM"},
      {"measurement": "TGI", "setting": "[16]", "result": 5.78, "unit": "µM"},
      {"measurement": "TGI", "setting": "[17]", "result": 30.3, "unit": "µM"},
      {"measurement": "TGI", "setting": "[18]", "result": 38.6, "unit": "µM"},
      {"measurement": "TGI", "setting": "[19]", "result": 39.5, "unit": "µM"},
      {"measurement": "TGI", "setting": "[20]", "result": 54, "unit": "µM"},
      {"measurement": "TGI", "setting": "[21]", "result": 19.5, "unit": "µM"},
      {"measurement": "TGI", "setting": "[22]", "result": "> 100", "unit": "µM"},
      {"measurement": "TGI", "setting": "[23]", "result": 9.12, "unit": "µM"},
      {"measurement": "TGI", "setting": "[24]", "result": "> 100", "unit": "µM"},
      {"measurement": "TGI", "setting": "[25]", "result": "> 100", "unit": "µM"},
      {"measurement": "TGI", "setting": "[26]", "result": 54.7, "unit": "µM"},
      {"measurement": "TGI", "setting": "[27]", "result": 6.58, "unit": "µM"},
      {"measurement": "TGI", "setting": "[28]", "result": "> 100", "unit": "µM"},
      {"measurement": "TGI", "setting": "[29]", "result": 16.6, "unit": "µM"},
      {"measurement": "TGI", "setting": "[30]", "result": 39.3, "unit": "µM"},
      {"measurement": "TGI", "setting": "[31]", "result": 34.2, "unit": "µM"},
      {"measurement": "TGI", "setting": "[32]", "result": "> 100", "unit": "µM"},
      {"measurement": "TGI", "setting": "[33]", "result": 9.95, "unit": "µM"},
      {"measurement": "TGI", "setting": "[34]", "result": 48.4, "unit": "µM"},
      {"measurement": "TGI", "setting": "[35]", "result": 35.7, "unit": "µM"},
      {"measurement": "TGI", "setting": "[36]", "result": 69.3, "unit": "µM"},
      {"measurement": "TGI", "setting": "[37]", "result": 39.1, "unit": "µM"},
      {"measurement": "TGI", "setting": "[38]", "result": 31.6, "unit": "µM"},
      {"measurement": "TGI", "setting": "[39]", "result": 82.7, "unit": "µM"},
      {"measurement": "TGI", "setting": "[40]", "result": 34.6, "unit": "µM"},
      {"measurement": "TGI", "setting": "[41]", "result": 27.1, "unit": "µM"},
      {"measurement": "TGI", "setting": "[42]", "result": 31.5, "unit": "µM"},
      {"measurement": "TGI", "setting": "[43]", "result": 18.7, "unit": "µM"},
      {"measurement": "TGI", "setting": "[44]", "result": 28.5, "unit": "µM"},
      {"measurement": "TGI", "setting": "[45]", "result": "> 100", "unit": "µM"},
      {"measurement": "TGI", "setting": "[46]", "result": "> 100", "unit": "µM"},
      {"measurement": "TGI", "setting": "[47]", "result": 36.4, "unit": "µM"},
      {"measurement": "TGI", "setting": "[48]", "result": 39.2, "unit": "µM"},
      {"measurement": "TGI", "setting": "[49]", "result": "> 100", "unit": "µM"}
    ]}
  ]
}
